Data as given in patent US11779014B2, “Adjuvants” (SYNGENTA PARTICIPATIONS AG, priority 2017, dated 2023).

How the values were obtained:
Type in all cases: in vivo
Settings in all cases: total surfactant 0.2% w/v, 21 days
Avena fatua (AVEFA) = assay: Glasshouse adjuvancy test for pinoxaden on AVEFA
Experimental: The efficacy of 1:1 blends of oleyl 20EO with oleyl 20EO with either n-hexanoyl, n-octanoyl or 2-ethyl hexanoyl ester caps as adjuvants for the herbicide pinoxaden was tested in a glasshouse against two weed species, sown into standard soil in pots and cultivated under controlled conditions in a glasshouse (20/16° C. day/night; 16 hours light; 65% humidity). Pinoxaden was added to the spray tank as a standard EC (emulsifiable concentrate) formulation. The plants were sprayed with pinoxaden at rates of 7.5 or 15 grams of pesticide per hectare using a laboratory track sprayer which delivered the aqueous spray composition at a rate of 200 litres per hectare, using a flat fan nozzle (Teejet 11002VS) at 2 bar. The spray solutions also contained the oleyl 20EO alone or in the 1:1 blends with the capped surfactants. The adjuvants were added to the spray solution at a total surfactant rate of 0.2% w/v. All spray solutions also contained 10% w/w of iso-propanol. The weed species and their BBCH growth stage at spraying were Avena fatua (AVEFA; growth stage 13) and Setaria viridis (SETVI; growth stage 13). Each spray test was replicated three times. The test plants were then grown in a glasshouse under controlled conditions (20/16° C. day/night; 16 hours light; 65% humidity) and watered twice a day. The efficacy of the herbicide was assessed visually and expressed as a percentage of the leaf area killed. Samples were assessed at a time period of 21 days following application.
Dodecyl 23EO and hexadecyl 20EO were capped with an n-hexyl ether cap. The efficacy of 1:1 blends of these with their uncapped counterparts were tested as adjuvants for the herbicide pinoxaden was tested in a glasshouse against two weed species, sown into standard soil in pots and cultivated under controlled conditions in a glasshouse (20/16° C. day/night; 16 hours light; 65% humidity). Pinoxaden was added to the spray tank as a standard EC (emulsifiable concentrate) formulation. The plants were sprayed with pinoxaden at a.i. rates of 7.5 or 15 grams per hectare using a laboratory track sprayer which delivered the aqueous spray composition at a rate of 200 litres per hectare, using a flat fan nozzle (Teejet 11002VS) at 2 bar. The spray solutions tested included the capped and uncapped alone or in the 1:1 blends with the capped surfactants. The adjuvants were added to the spray solution at a total surfactant rate of 0.2% w/v. All spray solutions also contained 10% w/w of iso-propanol. The weed species and their BBCH growth stage at spraying was Avena fatua (AVEFA; growth stage 12). Each spray test was replicated three times. The test plants were then grown in a glasshouse under controlled conditions (20/16° C. day/night; 16 hours light; 65% humidity) and watered twice a day. The efficacy of the herbicide was assessed visually and expressed as a percentage of the leaf area killed. Samples were assessed at a time period of 21 days following application.
Oleyl 20EO was capped with -butyl, n-pentyl and n-benzyl caps. The efficacy of 1:1 blends of these with their uncapped counterparts were tested as adjuvants for the herbicide pinoxaden was tested in a glasshouse against two weed species, sown into standard soil in pots and cultivated under controlled conditions in a glasshouse (20/16° C. day/night; 16 hours light; 65% humidity). Pinoxaden was added to the spray tank as a standard EC (emulsifiable concentrate) formulation. The plants were sprayed with pinoxaden at a.i. rates of 7.5 or 15 grams per hectare using a laboratory track sprayer which delivered the aqueous spray composition at a rate of 200 litres per hectare, using a flat fan nozzle (Teejet 11002VS) at 2 bar. The spray solutions tested included the capped and uncapped alone or in the 1:1 blends with the capped surfactants. The adjuvants were added to the spray solution at a total surfactant rate of 0.2% w/v. All spray solutions also contained 10% w/w of iso-propanol.

[1] = test system: Chenopodium album (CHEAL); assay: Glasshouse adjuvancy test for fomesafen (sodium salt) on CHEAL
Experimental: Fomesafen sodium salt was added to the spray tank as a standard SL (soluble concentrate) formulation. The plants were sprayed with fomesafen (sodium salt) at rates of 100 or 200 grams of sodium fomesafen per hectare using a laboratory track sprayer which delivered the aqueous spray composition at a rate of 200 litres per hectare, using a flat fan nozzle (Teejet 11002VS) at 2 bar. The spray solutions also contained the oleyl 20EO alone or in the 1:1 blends with the capped surfactants. The adjuvants were added to the spray solution at a total surfactant rate of 0.2% w/v. All spray solutions also contained 10% w/w of iso-propanol. The weed specie and its BBCH growth stage at spraying was Chenopodium album (CHEAL; growth stage 15). Each spray test was replicated three times. The test plants were then grown in a glasshouse under controlled conditions (24/18° C. day/night; 16 hours light; 65% humidity) and watered twice a day. The efficacy of the herbicide was assessed visually and expressed as a percentage of the leaf area killed. Samples were assessed at a time period of 21 days following application.

[2] = test system: Brachiaria platyphylla (BRAPL); assay: Glasshouse adjuvancy test for mesotrione on BRAPL
Experimental: (§1) Mesotrione was added to the spray tank as a standard SC (suspension concentrate) formulation. The plants were sprayed with mesotrione at rates of 30 or 60 grams of pesticide per hectare using a laboratory track sprayer which delivered the aqueous spray composition at a rate of 200 litres per hectare, using a flat fan nozzle (Teejet 11002VS) and an application volume of 200 litre/ha (at 2 bar). The spray solutions also contained the oleyl 20EO alone or in 1:1 blends with the capped surfactants. The adjuvants were added to the spray solution at a total surfactant rate of 0.2% w/v. All spray solutions also contained 10% w/w of iso-propanol. The weed species and their BBCH growth stage at spraying were Brachiaria platyphylla (BRAPL; growth stage 12-13), Commelina benghalensis (COMBE; growth stage 12-14) and Digitaria sanguinalis (DIGSA; growth stage 13). Each spray test was replicated three times. The test plants were then grown in a glasshouse under controlled conditions (24/18° C. day/night; 16 hours light; 65% humidity) and watered twice a day. The efficacy of the herbicide was assessed visually and expressed as a percentage of the leaf area killed. Samples were assessed at a time period of 21 days following application

[3] = test system: Commelina benghalensis (COMBE); assay: Glasshouse adjuvancy test for mesotrione on COMBE
Experimental: as §1

## CCCCCCCC/C=C\CCCCCCCCOCCOCCOCCOCCOCCOCCOCCOCCOCCOCCOCCOCCOCCOCCOCCOCCOCCOCCOCCOCCO [Oleyl 20EO, oleyl 20 ethoxylate]
Avena fatua (AVEFA); pinoxaden 7.5 g ai/ha, Example 4
  Mean control: 65.0%
Avena fatua (AVEFA); pinoxaden 15 g ai/ha, Example 4
  Mean control: 86.7%
Avena fatua (AVEFA); pinoxaden 15 g ai/ha, Example 9, growth stage 12
  Mean control: 92.7%
[1]; fomesafen (sodium salt) 100 g ai/ha
  Mean control: 68.3%
[1]; fomesafen (sodium salt) 200 g ai/ha
  Mean control: 68.3%
[2]; mesotrione 30 g ai/ha
  Mean control: 56.7%
[2]; mesotrione 60 g ai/ha
  Mean control: 71.7%
[3]; mesotrione 30 g ai/ha
  Mean control: 66.7%
[3]; mesotrione 60 g ai/ha
  Mean control: 76.7%
